Assay results as given in patent US20260158050A1, “USE OF EIDD-1931 OR DERIVATIVE THEREOF IN TREATMENT OF ENTEROVIRUS INFECTION” (ACADEMY OF MILITARY MEDICAL SCIENCES, priority 2022, published 2026).

Key:
[1] = tested on: Huh7 cells; assay: cytotoxicity test on Huh7 cells; assay type: cell-based, Human; settings: 3 days
Procedure: Human liver tumor cells (Huh7 cells) used in the experiment were purchased from Chinese National Infrastructure of Cell Line Resource. Human […] cells (RD cells) and African green monkey kidney cells (Vero cells) were purchased from ATCC (Cat. No.: CCL-136 and CCL-81, respectively). The above cells were cultured in a cell culture incubator at 37° C. and 5% CO2. The complete culture medium used for cell growth was DMEM high-glucose culture medium (purchased from Gibco, Cat. […] No.: 16000044) and penicillin-streptomycin (purchased from Gibco, Cat. No.: 2321152). The maintenance culture medium used for cell culture was DMEM high-glucose culture medium supplemented with 2% FBS and penicillin-streptomycin. H strain of EV-A71 was purchased from ATCC (Cat. No.: VR-1432). […] The microplate reader, model Spectra Max M5, was purchased from Molecular Devices. […] Finally, the luminescence value of each well was measured using the microplate reader. The inhibition rate of the test compounds at each dilution was calculated as follows: [formula] […] The half-cytotoxic concentrations (CC50) of the test compounds were calculated using the same method, and the select index (SI) was calculated based on EC50 and CC50: SI=CC50/EC50.

[2] = tested on: EV-A71 VP1 protein; assay: inhibition of EV-A71 VP1 protein synthesis (immunofluorescence, Western blot); assay type: cell-based; settings: Vero cells IF, RD cells Western blot (FIG. 4)
Procedure: Vero cells were seeded in a 96-well black plate at a density of about 1.0×10^4 per well and cultured at 37° C. and 5% CO2 for 24 hours. Then, EV-A71 virus was diluted to the corresponding concentration with cell maintenance medium and added into the 96-well plate (MOI=1). At the same time, the test compounds EIDD-1931 and EIDD-2801, which had been diluted in advance with cell maintenance medium, were added at the final concentrations of 10 μM, 3 μM and 100 μM, 30 μM, respectively. Then the cells were cultured for 16 hours, the liquid was discarded, 100 μL of 4% formaldehyde was added to each well for fixation for 30 minutes, the fixative was discarded, PBS buffer was added, and the antibody was incubated and labeled for imaging.
RD cells were seeded in a 12-well plate at a density of about 1.0×10^5 per well and cultured at 37° C. and 5% CO2 for 24 hours. Then, EV-A71 virus was diluted to the corresponding concentration with cell maintenance medium and added to the 12-well plate so that the virus content in each well was 0.1 MOI. […] After the protein concentration was determined with BCA protein quantification kit, the corresponding volume of 5×SDS Loading Buffer was added and boiled at 100° C. for 10 minutes to fully denature the protein. […]

[3] = tested on: CHIKV, VEEV, RSV, HCV, NV, IAV, IBV, EBOV, MERS-CoV, SARS-CoV-2; settings: background art; cited from earlier work
[4] = tested on: EV-A71 AH08/06; assay: CPE protection, EV-A71 AH08/06 strain; assay type: cell-based; settings: EV-A71 AH08/06, RD cells
[5] = tested on: EV-D68 STL-2014-12; assay: CPE protection, EV-D68 STL-2014-12 strain; assay type: cell-based; settings: for EC50: EV-D68 STL-2014-12, RD cells
[6] = tested on: EV-A71; assay: time series experiment, intracellular viral RNA load in RD cells; assay type: cell-based; settings: 10 μM, 0.01 MOI (FIG. 5)
Procedure: The specific steps were as follows: RD cells were seeded in a 12-well plate at a density of about 4.0×10^5 per well and cultured at 37° C. and 5% CO2 for 24 hours. Subsequently, the test compound EIDD-1931, the positive compound NITD008 and the EV-A71 virus were diluted to the corresponding concentrations with the cell maintenance medium, and then the pre-diluted compound or virus was added at the time point as shown in A in FIG. 5. After 30 hours of continuous culture, the cell supernatant was discarded, the intracellular RNA was extracted, and the intracellular viral RNA load was detected by qRT-PCR. The intracellular RNA extraction method and qRT-PCR system and reaction conditions were the same as described above.

[7] = tested on: MERS-CoV or SARS-CoV; settings: mice, cited from earlier work

O=c1nc(NO)ccn1[C@@H]1O[C@H](CO)[C@@H](O)[C@H]1O [EIDD-1931]
CC50 [1]: 34.09 ± 0.06 µM | inhibition of production of EV-A71 VP1 protein [2]: dose-dependently inhibit | inhibitory effects against CHIKV, VEEV, RSV, HCV, NV, IAV, IBV, EBOV, MERS-CoV and SARS-CoV-2 [3]: good inhibitory effects | EC50 [4]: 2.79 ± 0.89 µM | EC50 [5]: 9.69 ± 0.04 µM | inhibition on the adsorption and entry of the virus [6]: no obvious inhibition | stage of virus infection at which the antiviral effect is exerted [6]: viral replication stage

CC(C)C(=O)OC[C@H]1O[C@@H](n2cc/c(=N\O)[nH]c2=O)[C@H](O)[C@@H]1O [EIDD-2801]
CC50 [1]: > 100 µM | inhibition of production of EV-A71 VP1 protein [2]: dose-dependently inhibit | lung damage caused by MERS-CoV or SARS-CoV infections ([7]; preventive use): prevent lung damage | degree of lung damage and weight loss ([7]; therapeutic use within 12 hours or 24 hours after infection): significantly reduce | EC50 [4]: 30.3 ± 0.55 µM | inhibitory activity against EV-V68 [5]: low inhibitory activity | EC50 [5]: 86.2 ± 9.17 µM
